In ChEMBL document CHEMBL1122157 (J Med Chem, 1982):

Target: T1, Dihydrofolate reductase (Gallus gallus, UniProt P00378)
T1 sequence (P00378 whole entry): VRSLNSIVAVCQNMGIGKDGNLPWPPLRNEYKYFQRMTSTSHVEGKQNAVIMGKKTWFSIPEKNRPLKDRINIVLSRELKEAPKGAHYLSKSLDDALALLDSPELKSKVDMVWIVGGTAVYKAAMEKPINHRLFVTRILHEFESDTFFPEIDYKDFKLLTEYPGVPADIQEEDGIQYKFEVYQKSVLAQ
Assay: Evaluated for the inhibition of chicken liver Dihydrofolate reductase by using standard enzyme assay
Conditions: read-out: I50

Row | Compound | IC50 [nM]
1 | CN(Cc1cnc2nc(N)nc(N)c2n1)c1ccc(C(=O)NC(CCCCNC(=O)OCc2ccccc2)C(=O)O)cc1 (stereo unspecified) | 380
2 | CN(Cc1cnc2nc(N)nc(N)c2n1)c1ccc(C(=O)NC(CCCNC(=O)OCc2ccccc2)C(=O)O)cc1 (stereo unspecified) | 330
3 | CN(Cc1cnc2nc(N)nc(N)c2n1)c1ccc(C(=O)NC(CCCN)C(=O)O)cc1 (stereo unspecified) | 250
4 | CN(Cc1cnc2nc(N)nc(N)c2n1)c1ccc(C(=O)NC(CCCCN)C(=O)O)cc1 (stereo unspecified) | 130

Now from value to molecule:

Row | IC50 [nM] | Compound
5 | 3100 | CN(Cc1cnc2nc(N)nc(N)c2n1)c1ccc(C(=O)NC(CCCNC(=O)OCc2ccccc2)C(=O)OC(C)(C)C)cc1 (stereo unspecified)
6 | 950 | CN(Cc1cnc2nc(N)nc(N)c2n1)c1ccc(C(=O)NC(CCCCNC(=O)OCc2ccccc2)C(=O)OC(C)(C)C)cc1 (stereo unspecified)
